Measured values published in ChEMBL document CHEMBL4823282, “Novel Broad-Spectrum Antimicrobial Peptide Derived from Anoplin and Its Activity on Bacterial Pneumonia in Mice” (J Med Chem, 2021).
Values after ≈ are worked out from the molar mass of the structure shown. Where a SMILES comes first, the peptide text is derived from it.

How the values were obtained:
Bacteria [1] = test: Antibacterial activity against bacteria incubated for 18 hrs by CLSI based broth dilution method; format: functional
Pseudomonas aeruginosa [2] = test: Synergistic antibacterial activity against Pseudomonas aeruginosa ATCC 27853 at 2 times MIC incubated for 18 to 24 hrs in presence of 2 times MIC of rifampicin by broth microdilution assay based checkerboard assay; format: functional; conditions: time 18-24 hrs
Erythrocyte = test: Hemolytic activity in BALB/C mouse erythrocytes incubated for 1 hr by absorbance method; format: ADME, cell-based
Pseudomonas aeruginosa [3] = test: Synergistic antibacterial activity against Pseudomonas aeruginosa ATCC 27853 at 2 times MIC incubated for 18 to 24 hrs in presence of 2 times MIC of polymyxin B by broth microdilution assay based checkerboard assay; format: functional; conditions: time 18-24 hrs
Enterococcus faecalis = test: Antibacterial activity against Enterococcus faecalis ATCC 29212 incubated for 18 hrs by CLSI based broth dilution method; format: functional
Klebsiella pneumoniae [4] = test: Antibacterial activity against Klebsiella pneumoniae ATCC 700603 incubated for 18 hrs by CLSI based broth dilution method; format: functional
Fungi = test: Antibacterial activity against fungi incubated for 18 hrs by CLSI based broth dilution method; format: functional
Bacteria [5] = test: Antibacterial activity against Gram-negative bacteria incubated for 18 hrs by CLSI based broth dilution method; format: functional
Acinetobacter baumannii = test: Antibacterial activity against Acinetobacter baumannii ATCC 19606 incubated for 18 hrs by CLSI based broth dilution method; format: functional; conditions: ATCC 19606 = CIP 70.34 = JCM 6841
[6] = Selectivity ratio of MHC10 for BALB/C mouse erythrocytes to MIC for gram positive bacteria; format: toxicity
[7] = Selectivity ratio of MHC10 for BALB/C mouse erythrocytes to MIC for bacteria; format: toxicity
[8] = Cytotoxicity against human glomerular mesangial cells incubated for 12 hrs by MTT assay; format: cell-based; conditions: Glomerular mesangial cell
[9] = Selectivity ratio of MHC10 for BALB/C mouse erythrocytes to MIC for gram-negative bacteria; format: toxicity
Bacillus subtilis = test: Antibacterial activity against Bacillus subtilis ATCC 23857 incubated for 18 hrs by CLSI based broth dilution method; format: functional
[10] = Selectivity ratio of MHC10 for BALB/C mouse erythrocytes to MIC for fungi; format: toxicity
Escherichia coli = test: Antibacterial activity against Escherichia coli ATCC 25922 incubated for 18 hrs by CLSI based broth dilution method; format: functional
Bacteria [11] = test: Antibacterial activity against Gram-positive bacteria incubated for 18 hrs by CLSI based broth dilution method; format: functional
[12] = tested on: Staphylococcus epidermidis; test: Antibacterial activity against Staphylococcus epidermidis ATCC 12228 incubated for 18 hrs by CLSI based broth dilution method; format: functional
Pseudomonas aeruginosa [13] = test: Antibacterial activity against Pseudomonas aeruginosa ATCC 27853 incubated for 18 hrs by CLSI based broth dilution method; format: functional
Staphylococcus aureus [14] = test: Antibacterial activity against Staphylococcus aureus ATCC 25923 incubated for 18 hrs by CLSI based broth dilution method; format: functional
Staphylococcus aureus [15] = test: Bactericidal activity against Staphylococcus aureus ATCC 25923 at 2MIC by time-kill assay; format: functional, organism-based; conditions: time 24.0 hrs, TDE = time-dependent effect
Klebsiella pneumoniae [16] = test: Bactericidal activity against Klebsiella pneumoniae 700603 at 2MIC by time-kill assay relative to control; format: functional; conditions: 2M, TDE = time-dependent effect

Structure (SMILES)	MIC (Bacteria [1]) [µM]	FIC (Pseudomonas aeruginosa [2])	MHC10 (Erythrocyte)	FIC (Pseudomonas aeruginosa [3])	MIC (Enterococcus faecalis) [µM]	MIC (Klebsiella pneumoniae [4]) [µM]	MIC (Fungi) [µM]	MIC (Bacteria [5]) [µM]	MIC (Acinetobacter baumannii) [µM]	selectivity ratio at 18 h [6]	selectivity ratio [7]	IC50 [8] [µM]	selectivity ratio [9]	MIC (Bacillus subtilis) [µM]	selectivity ratio [10]	MIC (Escherichia coli) [µM]	MIC (Bacteria [11]) [µM]	MIC [12] [µM]	MIC (Pseudomonas aeruginosa [13]) [µM]	MIC (Staphylococcus aureus [14]) [µM]	further results
CC(C)C[C@H](NC(=O)[C@H](Cc1c[nH]c2ccccc12)NC(=O)CN)C(=O)N[C@@H](CCCCN)C(=O)N[C@@H](CCCNC(=N)N)C(=O)N[C@@H](Cc1c[nH]c2ccccc12)C(=O)N[C@@H](CCCCN)C(=O)N[C@H](C(=O)N[C@@H](CC(C)C)C(=O)N[C@@H](Cc1c[nH]c2ccccc12)C(N)=O)[C@@H](C)O (H-GWLKRWKTLW-NH2)	20.8 (≈ 28.5 µg/mL)	0.3125	320 µM	0.25	64 (≈ 87.9 µg/mL)	16 (≈ 22 µg/mL)	20.8 (≈ 28.5 µg/mL)	16 (≈ 22 µg/mL)	32 (≈ 43.9 µg/mL)	11.9	15.4	105	20	16 (≈ 22 µg/mL)	15.4	16 (≈ 22 µg/mL)	26.9 (≈ 36.9 µg/mL)	32 (≈ 43.9 µg/mL)	16 (≈ 22 µg/mL)	16 (≈ 22 µg/mL)	–
CC[C@H](C)[C@H](NC(=O)[C@H](CCCNC(=N)N)NC(=O)[C@H](CCCCN)NC(=O)[C@H](Cc1c[nH]c2ccccc12)NC(=O)[C@H](Cc1c[nH]c2ccccc12)NC(=O)CN)C(=O)N[C@@H](CCCCN)C(=O)N[C@H](C(=O)N[C@@H](Cc1c[nH]c2ccccc12)C(=O)N[C@@H](Cc1c[nH]c2ccccc12)C(N)=O)[C@@H](C)O (H-GWWKRIKTWW-NH2)	7.34 (≈ 10.6 µg/mL)	0.5	102.54 µM	0.5	16 (≈ 23.1 µg/mL)	8 (≈ 11.6 µg/mL)	7.34 (≈ 10.6 µg/mL)	6.7 (≈ 9.69 µg/mL)	8 (≈ 11.6 µg/mL)	12.8	14	25.2	15.3	8 (≈ 11.6 µg/mL)	14	8 (≈ 11.6 µg/mL)	8 (≈ 11.6 µg/mL)	8 (≈ 11.6 µg/mL)	8 (≈ 11.6 µg/mL)	4 (≈ 5.78 µg/mL)	–
CC[C@H](C)[C@H](NC(=O)[C@H](CCCNC(=N)N)NC(=O)[C@H](CCCCN)NC(=O)[C@H](Cc1ccccc1)NC(=O)[C@H](Cc1c[nH]c2ccccc12)NC(=O)[C@@H](N)CCCCN)C(=O)N[C@@H](CCCCN)C(=O)N[C@H](C(=O)N[C@@H](Cc1ccccc1)C(=O)N[C@@H](Cc1c[nH]c2ccccc12)C(N)=O)[C@@H](C)O (H-KWFKRIKTFW-NH2)	32 (≈ 46 µg/mL)	0.3125	>= 512 uM	0.25	64 (≈ 92.1 µg/mL)	32 (≈ 46 µg/mL)	32 (≈ 46 µg/mL)	–	128 (≈ 184 µg/mL)	13.4	16	80.2	19	16 (≈ 23 µg/mL)	16	16 (≈ 23 µg/mL)	38.1 (≈ 54.8 µg/mL)	128 (≈ 184 µg/mL)	16 (≈ 23 µg/mL)	16 (≈ 23 µg/mL)	–
N=C(N)NCCC[C@H](NC(=O)[C@H](CCCCN)NC(=O)[C@H](Cc1c[nH]c2ccccc12)NC(=O)[C@H](Cc1c[nH]c2ccccc12)NC(=O)[C@@H](N)CCCCN)C(=O)N[C@@H](Cc1c[nH]c2ccccc12)C(=O)N[C@@H](CCCCN)C(=O)N[C@@H](CCCCN)C(=O)N[C@@H](Cc1c[nH]c2ccccc12)C(=O)N[C@@H](Cc1c[nH]c2ccccc12)C(N)=O (H-KWWKRWKKWW-NH2)	9.51 (≈ 15.4 µg/mL)	0.3125	77.65 µM	0.25	16 (≈ 25.9 µg/mL)	16 (≈ 25.9 µg/mL)	9.51 (≈ 15.4 µg/mL)	11.3 (≈ 18.3 µg/mL)	8 (≈ 12.9 µg/mL)	9.71	8.16	19.8	6.87	4 (≈ 6.47 µg/mL)	8.16	16 (≈ 25.9 µg/mL)	8 (≈ 12.9 µg/mL)	8 (≈ 12.9 µg/mL)	16 (≈ 25.9 µg/mL)	8 (≈ 12.9 µg/mL)	–
CN[C@H](CC(C)C)C(=O)N[C@H]1C(=O)N[C@@H](CC(N)=O)C(=O)N[C@H]2C(=O)N[C@H]3C(=O)N[C@H](C(=O)N[C@H](C(=O)O)c4cc(O)cc(O)c4-c4cc3ccc4O)[C@H](O)c3ccc(c(Cl)c3)Oc3cc2cc(c3O[C@@H]2O[C@H](CO)[C@@H](O)[C@H](O)[C@H]2O[C@H]2C[C@](C)(N)[C@H](O)[C@H](C)O2)Oc2ccc(cc2Cl)[C@H]1O [VANCOMYCIN]	–	–	–	–	< 1	≥ 128	–	–	< 1	–	–	–	–	< 1	–	64 (≈ 92.8 µg/mL)	–	< 1	64 (≈ 92.8 µg/mL)	< 1	Activity (Staphylococcus aureus [15]): Tde; Activity (Klebsiella pneumoniae [16]): Tde
